Experimental data reported in patent US10077237B2 (Sanofi, priority 2013, dated 2018).
Where a name gives a salt, the structure may show the parent alone.

Target: T1, recombinant human AMPK complex, containing α2β1γ2 (Homo sapiens, UniProt P54646+Q9Y478)
T1 construct: hsAMPKα2-552-His, hsAMPKβ1-2-270 and hsAMPKγ-2-569 respectively; hsAMPKβ1-2-270; hsAMPKγ-2-569; His (C); made in house; host or cells: Spodoptera frugiperda Sf21 (baculovirus)
Assay: AMPK in vitro activation assay (HTRF)
Format: biochemical
Settings: for EC50: HTRF, recombinant human α2β1γ2 AMPK, 200 μM ATP, biotinylated ACC-CREBp peptide, repeat determinations on separate lines; for Emax: potentiation of AMPK activity as percent over the basal signal (without compound)
Experimental: The recombinant human AMPK complex, containing α2β1γ2 was obtained from baculovirus expression system and generated by cotransfection in Spodoptera frugiperda 21 (Sf21). […] were produced in serum free medium (SF900 II, Invitrogen) for 82 hours after a triple infection at a multiplicity of infection (M.O.I.) of 0.05, 0.06 and 0.045 for hsAMPKα2-552-His, hsAMPKβ1-2-270 and hsAMPKγ-2-569 respectively. Cells were harvested by centrifugation at 1,000×g for 10 minutes at 4° C. and stored at −80° C. The insect cell pellet from 8 liters of culture was resuspended and homogenized in 580 ml of lysis buffer (20 mM Hepes pH 7.5, 150 mM NaCl, 10 mM imidazole, 50 mM NaF, 10% Glycerol and supplemented with EDTA free proteases inhibitor cocktail Roche). The AMPK complex was partially purified using an affinity chromatography under a Ni-NTA Agarose column equilibrated in the lysis buffer and eluted with a gradient (0 to 400 mM) of Imidazol.
A homogeneous time-resolved fluorescence (HTRF) assay was used (Li et al, Anal. Biochem. (2003) 321, 151-156) to identify compounds with stimulating activity for the recombinant human AMPK. Enzyme reaction was performed into a 96-well microtiter plate. First, 20 μL of test compounds in 0.5% DMSO were dispensed followed by 10 μL of protein in 50 mM HEPES buffer at pH 7.0, 100 mM NaCl, 5 mM MgCl2, 0.01% BSA, 0.8 mM DTT. After, 30 min incubation at room temperature, the reaction was initiated by the addition of 10 μL of a solution containing 200 μM of ATP as donor substrate, 2 μM or 0.08 μM of biotinylated ACC-CREBp peptide (PolyPeptide) as acceptor. Plates were then incubated 45 min at 37° C. The reaction was terminated by the addition of 40 μl detection mixture containing Eu^3+ cryptate-conjugated anti-pS^133-CREB antibody and streptavidine-XL665 (CisBio). Plates were further incubated for 2 h30 at room temperature. The fluorescence signal was measured using an Envision multireader (Perkin Elmer). The non-specific signal was obtained without substrates. Potentiation of AMPK activity was expressed as a percent over the basal signal (without compound) from which an EC50 value was determined.
The EC50 of a graded dose response curve represents the concentration of a compound where 50% of its maximal effect is observed.

T1 sequence (P54646 2-552): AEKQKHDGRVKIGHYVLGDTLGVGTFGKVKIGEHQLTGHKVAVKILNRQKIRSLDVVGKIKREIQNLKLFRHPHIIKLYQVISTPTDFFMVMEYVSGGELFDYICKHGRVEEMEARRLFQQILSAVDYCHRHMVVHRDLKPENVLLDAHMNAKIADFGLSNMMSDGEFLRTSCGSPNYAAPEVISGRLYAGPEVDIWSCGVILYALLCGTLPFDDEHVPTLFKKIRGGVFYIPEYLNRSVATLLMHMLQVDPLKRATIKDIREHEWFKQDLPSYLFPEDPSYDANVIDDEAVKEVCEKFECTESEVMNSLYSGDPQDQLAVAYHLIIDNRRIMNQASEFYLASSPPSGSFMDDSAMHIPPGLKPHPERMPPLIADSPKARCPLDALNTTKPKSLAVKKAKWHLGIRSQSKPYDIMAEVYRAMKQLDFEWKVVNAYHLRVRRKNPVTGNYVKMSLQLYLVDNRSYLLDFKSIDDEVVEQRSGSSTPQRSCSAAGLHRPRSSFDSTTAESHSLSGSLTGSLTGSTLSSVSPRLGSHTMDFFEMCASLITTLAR
T1 sequence (Q9Y478 2-270): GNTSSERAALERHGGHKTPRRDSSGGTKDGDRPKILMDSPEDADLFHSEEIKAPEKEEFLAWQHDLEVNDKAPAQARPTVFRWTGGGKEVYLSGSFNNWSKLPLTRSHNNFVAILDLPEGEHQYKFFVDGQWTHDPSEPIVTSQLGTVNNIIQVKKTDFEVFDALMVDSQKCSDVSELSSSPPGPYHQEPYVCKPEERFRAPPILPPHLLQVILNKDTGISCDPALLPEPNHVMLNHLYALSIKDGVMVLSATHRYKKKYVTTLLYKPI
T1 sequence (Q9UGJ0 2-569 partner limits assumed): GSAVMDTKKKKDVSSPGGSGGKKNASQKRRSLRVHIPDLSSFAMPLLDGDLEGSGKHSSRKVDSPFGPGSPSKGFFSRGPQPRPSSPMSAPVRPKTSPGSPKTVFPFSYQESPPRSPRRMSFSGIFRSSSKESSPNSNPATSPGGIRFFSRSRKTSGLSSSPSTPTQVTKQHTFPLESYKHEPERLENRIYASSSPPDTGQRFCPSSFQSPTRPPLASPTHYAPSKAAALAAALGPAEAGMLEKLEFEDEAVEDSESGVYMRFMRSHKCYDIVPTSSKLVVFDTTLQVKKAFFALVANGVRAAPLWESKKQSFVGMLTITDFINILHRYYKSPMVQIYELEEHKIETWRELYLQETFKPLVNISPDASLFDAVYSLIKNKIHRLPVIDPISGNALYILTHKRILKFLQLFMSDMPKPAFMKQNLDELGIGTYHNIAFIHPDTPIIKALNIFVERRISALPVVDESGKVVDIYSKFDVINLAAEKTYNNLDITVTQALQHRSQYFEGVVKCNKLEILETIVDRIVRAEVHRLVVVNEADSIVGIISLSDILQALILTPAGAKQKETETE

| EC50 | Emax | Structure (SMILES) |
| --- | --- | --- |
| 120 nM | 147% | O=C1Nc2cc(Cl)c(-c3ccc(C4=CCOCC4)cc3)cc2C1=C(O)c1cccc(F)c1 [Compound 52, 6-Chloro-5-[4-(3,6-dihydro-2H-pyran-4-yl)-phenyl]-3-[1-(3-fluoro-phenyl)-1-hydroxy-methylidene]-1,3-dihydro-indol-2-one] |
| 140 nM | 112% | O=C1Nc2cc(Cl)c(-c3ccc(N4CCOCC4)cc3)cc2C1=C(O)c1ccccc1F [Compound 32, 6-Chloro-3-[1-(2-fluoro-phenyl)-1-hydroxy-methylidene]-5-(4-morpholin-4-yl-phenyl)-1,3-dihydro-indol-2-one] |
| 58 nM | 186% | CN1CCN(c2cccc(C(O)=C3C(=O)Nc4cc(Cl)c(-c5ccc(N6CCOCC6)cc5)cc43)c2)CC1 [Compound 93, 6-chloro-3-[hydroxy-[3-(4-methylpiperazin-1-yl)phenyl]methylene]-5-(4-morpholinophenyl)indolin-2-one hydrochloride] |
| 1 nM | 175% | COc1cc(C(O)=C2C(=O)Nc3cc(Cl)c(-c4ccc(C5(CO)CC5)cc4F)cc32)on1 [Compound 111, 6-chloro-5-[2-fluoro-4-[1-(hydroxymethyl)cyclopropyl]phenyl]-3-[hydroxy-(3-methoxyisoxazol-5-yl)methylene]indolin-2-one] |
| 620 nM | 168% | O=C1Nc2cc(Cl)c(-c3ccc(N4CCOCC4)cc3)cc2C1=C(O)c1cccc(C(F)F)c1 [Compound 39, 6-Chloro-3-[1-(3-difluoromethyl-phenyl)-1-hydroxy-methylidene]-5-(4-morpholin-4-yl-phenyl)-1,3-dihydro-indol-2-one] |
| 110 nM | 143% | Cc1cc(C(O)=C2C(=O)Nc3cc(Cl)c(-c4ccc(N5CCCC5)cc4)cc32)on1 [Compound 24, 6-Chloro-3-[1-hydroxy-1-(3-methyl-isoxazol-5-yl)-methylidene]-5-(4-pyrrolidin-1-yl-phenyl)-1,3-dihydro-indol-2-one] |
| 38 nM | 133% | COCCOc1cc(C(O)=C2C(=O)Nc3cc(Cl)c(-c4ccc(-c5cccc(OC)c5O)cc4)cc32)on1 [Compound 79, 6-chloro-3-[hydroxy-[3-(2-methoxyethoxy)isoxazol-5-yl]methylene]-5-[4-(2-hydroxy-3-methoxy-phenyl)phenyl]indolin-2-one] |
| 6 nM | 95% | O=C1Nc2cc(Cl)c(-c3ccc(C4(CO)CC4)cc3)cc2C1=C(O)c1ccccc1F [Compound 46, 6-Chloro-3-[1-(2-fluoro-phenyl)-1-hydroxy-methylidene]-5-[4-(1-hydroxymethyl-cyclopropyl)-phenyl]-1,3-dihydro-indol-2-one] |
| 15 nM | 99% | Cc1cc(C(O)=C2C(=O)Nc3cc(Cl)c(-c4ccc(C(O)(CO)CCl)cc4)cc32)on1 (stereo not shown) [Compound 80, 6-chloro-5-[4-[1-(chloromethyl)-1,2-dihydroxy-ethyl]phenyl]-3-[hydroxy-(3-methylisoxazol-5-yl)methylene]indolin-2-one] |

Further lines, the compound ahead of its results:

| Structure (SMILES) | EC50 | Emax |
| --- | --- | --- |
| O=C1Nc2cc(Cl)c(-c3ccc(-c4ccccc4)cc3)cc2C1=C(O)c1ccccc1 [Compound 7, 5-Biphenyl-4-yl-6-chloro-3-[1-hydroxy-1-phenyl-methylidene]-1,3-dihydro-indol-2-one] | 1400 nM | 57% |
| Cn1ccc(C(O)=C2C(=O)Nc3cc(Cl)c(-c4ccc(N5CCOCC5)cc4)cc32)n1 [Compound 53, 6-Chloro-3-[1-hydroxy-1-(1-methyl-1H-pyrazol-3-yl)-methylidene]-5-(4-morpholin-4-yl-phenyl)-1,3-dihydro-indol-2-one] | 1710 nM | 180% |
| Cc1cc(C(O)=C2C(=O)Nc3cc(Cl)c(-c4ccc(C5(CO)CC5)cc4F)cc32)on1 [Compound 85, 6-chloro-5-[2-fluoro-4-[1-(hydroxymethyl)cyclopropyl]phenyl]-3-[hydroxy-(3-methylisoxazol-5-yl)methylene]indolin-2-one] | 1 nM | 151% |
| COc1cc(C(O)=C2C(=O)Nc3cc(F)c(-c4ccc(-c5cccc(OC)c5O)cc4)cc32)on1 [Compound 71, 6-Fluoro-5-(2′-hydroxy-3′-methoxy-biphenyl-4-yl)-3-[1-hydroxy-1-(3-methoxy-isoxazol-5-yl)methylidene]-1,3-dihydro-indol-2-one] | 2 nM | 158% |
| Cc1cc(C(O)=C2C(=O)Nc3cc(Cl)c(-c4ccc(OCC5CCO5)cc4)cc32)on1 (stereo not shown) [Compound 115, 6-chloro-3-[hydroxy-(3-methylisoxazol-5-yl)methylene]-5-[4-(oxetan-2-ylmethoxy)phenyl]indolin-2-one] | 30 nM | 149% |
| O=C1Nc2cc(Cl)c(-c3ccc(C4(CO)CC4)cc3)cc2C1=C(O)c1cc(F)cc(F)c1 [Compound 144, 6-chloro-3-[(3,5-difluorophenyl)hydroxy-methylene]-5-[4-[1-(hydroxymethyl)cyclopropyl]phenyl]indolin-2-one] | 0.9 nM | 210% |
| COc1cccc(-c2ccc(-c3cc4c(cc3Cl)NC(=O)C4=C(O)c3cc(C)no3)cc2)c1O [Compound 5, 6-Chloro-5-(2′-hydroxy-3′-methoxy-biphenyl-4-yl)-3-[1-hydroxy-1-(3-methyl-isoxazol-5-yl)-meth-ylidene]-1,3-dihydro-indol-2-one] | 4 nM | 193% |
| COc1cccc(C(O)=C2C(=O)Nc3cc(Cl)c(-c4ccc(N5CCOCC5)cc4)cc32)c1 [Compound 50, 6-Chloro-3-[1-hydroxy-1-(3-methoxy-phenyl)-methylidene]-5-(4-morpholin-4-yl-phenyl)-1,3-dihydro-indol-2-one] | 40 nM | – |
| Cc1cc(C(O)=C2C(=O)Nc3cc(Cl)c(-c4ccc(OCCCN5CCN(C)CC5)cc4)cc32)on1 [Compound 70, 6-Chloro-3-[1-hydroxy-1-(3-methyl-isoxazol-5-yl)methylidene]-5-{4-[3-(4-methyl-piperazin-1-yl)-propoxy]-phenyl}-1,3-dihydro-indol-2-one, hydrochloride] | 88 nM | 142% |
| COc1cc(F)c(C(O)=C2C(=O)Nc3cc(Cl)c(-c4ccc(C5CC(O)C5)cc4)cc32)cc1F (stereo not shown) [Compound 159, 6-chloro-3-[(2,5-difluoro-4-methoxy-phenyl)hydroxy-methylene]-5-[4-(3-hydroxycyclobutyl)phenyl]indolin-2-one] | 10 nM | 180% |
| Cc1cc(C(O)=C2C(=O)Nc3cc(Cl)c(-c4ccc(-c5ccncc5)cc4)cc32)on1 [Compound 35, 6-Chloro-3-[1-hydroxy-1-(3-methyl-isoxazol-5-yl)-methylidene]-5-(4-pyridin-4-yl-phenyl)-1,3-dihydro-indol-2-one, hydrochloride] | 23 nM | 151% |
| COc1cc(C(O)=C2C(=O)Nc3cc(Cl)c(-c4ccc(N5CCCC5)cc4)cc32)on1 [Compound 137, 6-chloro-3-[hydroxy-(3-methoxyisoxazol-5-yl)methylene]-5-(4-pyrrolidin-1-ylphenyl)indolin-2-one] | 16 nM | 271% |
| O=C1Nc2cc(Cl)c(-c3ccc(C4(CO)CC4)cc3)cc2C1=C(O)c1cccs1 [Compound 114, 6-chloro-5-[4-[1-(hydroxymethyl)cyclopropyl]phenyl]-3-[hydroxy(2-thienyl)methylene]indolin-2-one] | 4 nM | 143% |
